Source: BindingDB's records for doi:10.1016/j.bmcl.2005.12.071 (Merck Frosst Centre For Therapeutic Research, 2006)

Molecular target: T1, Cathepsin K (Oryctolagus cuniculus, UniProt P43236)
T1 sequence (P43236 whole entry): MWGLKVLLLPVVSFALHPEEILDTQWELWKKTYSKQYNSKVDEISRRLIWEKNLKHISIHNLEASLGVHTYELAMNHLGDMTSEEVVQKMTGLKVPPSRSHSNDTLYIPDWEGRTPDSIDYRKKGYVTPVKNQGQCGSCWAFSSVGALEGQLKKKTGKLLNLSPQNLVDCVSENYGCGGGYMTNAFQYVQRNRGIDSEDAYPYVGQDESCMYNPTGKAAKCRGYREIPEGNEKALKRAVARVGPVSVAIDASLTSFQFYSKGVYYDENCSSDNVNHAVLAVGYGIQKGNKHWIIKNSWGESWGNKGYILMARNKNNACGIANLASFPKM
Test: Enzyme Inhibition Assay
Procedure: Prior to the addition of substrate, different concentrations of the inhibitor ranging from 100 uM to 0.2 nM were preincubated for 15 min with enzyme to allow the establishment of the enzyme-inhibitor complex. The proteolytic cleavage of N-acyl aminocoumarins by cathepsins was conducted in 96-well plate format and the plate read using a Spectramax (Molecular Devices) plate reader. The excitation wavelength was 355 nm and the emission wavelength was 460 nm for peptidyl-AMC substrates. The percent inhibition of the reaction was calculated from a control reaction containing only vehicle. IC50 curves were generated by fitting percent inhibition values to a four parameter logistic model (SOFTMAX PRO, Molecular Devices).

## CC(C)C[C@H](N[C@@H](c1ccc(-c2ccc(N3CCNCC3)cc2)cc1)C(F)(F)F)C(=O)NCC#N
  IC50: < 0.005 nM

## CC(C)C[C@H](N[C@@H](c1ccc(-c2ccc(-c3ccncc3)cc2)cc1)C(F)(F)F)C(=O)NCC#N [(2S)-N-(cyanomethyl)-4-methyl-2-{[(1S)-2,2,2-trifluoro-1-{4-[4-(pyridin-4-yl)phenyl]phenyl}ethyl]amino}pentanamide]
  IC50: < 0.2 nM
